The values that follow come from US7183440B2, “Pharmaceutically useful compounds” (priority 2005, dated 2007).

In one data set the test system is HSF. The experiment in a line: HSF activation, luciferase reporter controlled by the human hsp70 promoter in HeLa cell clone 13B. It is filed as cell-based. The following applies: read-out: HSF AC200/μM. The procedure: (§1) HeLa cell clone 13B, stably transfected with a luciferase reporter plasmid controlled by the human hsp70 promoter, and HeLa κB-transformed cells, stably transfected with a luciferase reporter plasmid controlled by a synthetic NF-κB-STM construct, were maintained in DMEM medium supplemented with 10% FBS, L-glutamine (2 mM) and G418 (250 μg/ml) at 37° C. in a 5% CO2 humidified atmosphere.
(§2) Cells were seeded at a density of 4×10^4 cells/well in 96-well plates. After 18–20 h, the medium was removed and cells were treated for 8 h with the test compounds (100 μl) at the appropriate dilutions in serum-free medium. For the NF-κB-dependent reporter gene assay, cells were stimulated with TPA (25 ng/ml) 2 h after exposure to the compounds.
(§3) After incubation, the medium was removed and cells were lysed in 10 μl of lysis buffer. The luciferase activity was determined by adding 100 μl of substrate and measuring the release of light using a Victor 1420 microplate reader (Wallac, Finland).
(§4) The AC200/μM for HSF is the concentration at which the tested compound doubled the HSF activity in this assay. The IC50/μM for NF-κB is the concentration at which the tested compound halved the NF-κB activity in this assay. […] The LC50/μM is the concentration at which the tested compound killed half the cells in each assay. […] (n.d. means not done)
(In a reporter assay the amount or activity of a reporter protein is the signal.)

For data set [1], the system named is NF-κB. The experiment in a line: NF-κB-dependent luciferase reporter gene assay in HeLa κB-transformed cells stimulated with TPA. It is filed as cell-based, human. The procedure: as §1, §2, §3
(§5) The fragment Kpn I-BamH I from the pGL3 basic vector containing the luciferase gene (PROMEGA) was inserted in the pcDNA3 vector (INVITROGEN) digested with Bgl II-KpnI. (This digestion removes the CMV-promoter from pcDNA3.) The resulting new vector was digested with Kpn I-Hind III and a promoter containing a ‘5×NF-κB binding sites-TATA box’ sequence was inserted upstream of the luciferase gene. This vector has been named STM.
(§6) To obtain stable HeLa cell lines expressing the luciferase gene under the control of NF-κB, HeLa cells were transfected (using lipofectamine plus GIBCO) with the STM-Pvu I linearized vector, and selected for 20 days with G418 (800 μg/ml). After selection, the resistant HeLa cell pool was controlled (in quadruplicate samples) for luciferase activity after stimulation with TNFα, IL-1 and TPA.
as §4

A short description of data set [2]: in vitro. It is filed as cell-based. As to conditions: human. The procedure: (§7) HeLa cells were plated in 96-well microtiter plates in 100 μl culture medium (4×10^4/well). After 20 hours, the cells were exposed to the test compounds at different dilutions and incubated for the next 8 h at 37° C. in a 5% CO2 humidified atmosphere. After 6 h incubation, the Alamar Blue was added in an amount equal to 10% of the culture volume (10 μl). Two hours after the addition of the Alamar Blue, the fluorescence was measured using a Victor 1420 microplate reader.

A further data set deals with Sendai virus. The experiment in a line: Replication of Sendai virus in 37RC cells, virus yield by haemagglutinin titration. As to conditions: Respirovirus muris, read-out: ID50/μM. It is filed as cell-based. The procedure:
Monkey kidney 37RC cells were grown at 37° C. in RPMI medium supplemented with 5% foetal bovine serum (FBS), L-glutarine (2 mM) and antibiotics. Sendai virus was grown in the allantoic cavity of 10-day-old embryonated eggs. Viral titre was expressed in haemagglutinating units (HAU) per ml; haemagglutinin titration was done according to standard procedures, as described in C. Amici et al. (J. Virol. 68: 6890–6899, 1994). […] Confluent 37RC monolayers were infected with Sendai Virus (5 HAU/ml) for 1 h at 37° C. After 1 hour incubation, viral inoculum was removed and cells were treated with the test compounds at different concentrations. Virus yields were determined 24 h post infection by haemagglutinin titration. Mock-infected cells were treated identically and processed for cytotoxicity assay (Neutral Red assay) at the same time (see below). The results were expressed as HAU/ml (each point represents the mean of duplicate samples).

Another data set relates to Monkey kidney 37RC cells. The format is cell-based. As to conditions: concentration 100% toxic to uninfected 37RC cells, visually by microscopy.
A short description of data set [3]: in vitro. The format is cell-based. As to conditions: monkey, 50% lethal dose/concentration, neutral red assay, 37RC cells, read-out: LC50/μM. The procedure: Cell viability was determined using the Neutral Red assay.
For data set [4], the system named is HeLa cells. The experiment in a line: in vitro. The format is cell-based. The following applies: human, 8 h. The procedure: as §7
Data set [5] is described as follows: in vitro. The following applies: human. The procedure: (§8) This assay was carried out on HeLa cells using a technique analogous to that described below in Example 36(b) for Monkey Kidney 37RC cells.
as §4
(§9) Cell viability was determined using the Neutral Red assay. 37RC cells were seeded at density of 6×10^4 cells/well in 24-well plates and incubated for 24 h. Confluent 37RC monolayers were treated with the test compounds at different dilutions for 24 h at 37° C. After incubation, the medium was removed and the cells were incubated with RPMI medium containing 40 μg/ml Neutral Red dye (500 μl/well). After 2 h at 37° C., the monolayers were washed with phosphate-buffered saline (PBS) and then with a solution containing 1% CaCl2 and 0.5% formaldehyde. After washing, a solution containing 1% acetic acid/50% ethanol was added to the monolayers (250 μl/well). After 10 min at room temperature, the absorbance was determined with a microplate reader (Victor 1420, Wallac) at 540 nm.

Data set [6] has as its system HeLa cells. Nature of the data set: in vitro. The following applies: read-out: Toxicity Neutral Red LC50/μM; HeLa cells; concentration that killed half the cells. The procedure: as §8, §4, §9
Data set [7] in a line: Blood pressure of the anaesthetized rat, intravenous infusion. The format is in vivo. The following applies: doses from 30 μg/kg/min. The source says:
Most prostaglandins have strong effects on vascular smooth muscle, and will lower blood pressure in animals and humans. A compound can be tested for its effect on the blood pressure of the anaestheized rat. Prostaglandins A1 and E1 can be used for comparison. Male Wistar rats were anaesthetized and test drugs can be infused intravenously. Blood pressure and heart rate can be recorded from the femoral artery. […] It can be determined whether or not a test compound affects blood pressure at various dosages. As a control, solvent alone can be used.

The test system of data set [8] is NF-κB. The experiment in a line: Luciferase activity of NF-κB-LUC transfected HeLa cell pool after stimulation. It is filed as cell-based, human. The following applies: resistant HeLa cell pool, quadruplicate samples; control 1369±149.
Description: as §5, §6

For another data set, the system named is HSF1. As to conditions: cited from earlier work.
Data set [9] deals with NF-κB. As to conditions: at the same concentration (125–500 μM); cited from earlier work.
Where [10] appears, read: Homo sapiens, concentration at which the compound doubled HSF activity, HeLa clone 13B, 8 h treatment.
[11] abbreviates: Homo sapiens, concentration that halved NF-κB activity, HeLa reporter cells, TPA 25 ng/ml, 8 h treatment.

Like-named read-outs stand apart in the source and are kept apart here.

Take `CC(C)/C=C1/C(=O)C=CC1NC(=O)c1ccccc1` (stereo not shown) [CTC-172, N-(5-iso-Butylidene-4-oxocyclopent-2-enyl)-benzamide]: the EC (2-fold HSF activity) with HSF (setting [10]) was under 6.2 µM. For the same compound, the IC50 with NF-κB [1] (setting [11]) was under 6.2 µM; with Sendai virus (50% inhibitory dose/concentration at 24 hours, Sendai virus in 37RC cells), 0.3 µM. In addition, the CC50 at 8 h in the data set “in vitro [2]” is 50 µM. The compound further displayed a TD100/μM in the data set with Monkey kidney 37RC cells of 10 µM. Besides, in the data set “in vitro [3]”, the CC50 at 24 h stood at 4 µM.
Consider `CC(C)(C)OC(=O)NC1C=CC(=O)/C1=C/c1ccccc1` (stereo not shown) [CTC-248, ((E)-5-Benzylidene-4-oxo-cyclopent-2-enyl)-carbamic acid tert-butyl ester], for which the EC (2-fold HSF activity) with HSF (setting [10]) came out at 1.8 µM. Besides, the figures for the IC50 with NF-κB [1] (setting [11]) and with Sendai virus (24 h) were 4 µM and 0.6 µM, respectively. In the data set on HeLa cells [4], this compound registered a CC50 of over 800 µM. Moreover, the CC50 at 24 h in “in vitro [5]” and in the data set “in vitro [3]” was 33 µM each time. In the data set on Monkey kidney 37RC cells, this compound gave a TD100/μM of 10 µM.
On to `COC(=O)[C@H](CS[C@@H]1CC(=O)C[C@H]1NC(=O)Oc1ccccc1)NC(=O)OC(C)(C)C` [CTM-236, (R)-2-tert-Butoxycarbonylamino-3-((1R,2R)-4-oxo-2-phenoxy-carbonyl-amino-cyclopentyl-sulfanyl)-propionic acid methyl ester], for which the EC (2-fold HSF activity) with HSF (concentration at which the compound doubled HSF activity, HeLa clone 13B, 8 h treatment) is reported as 13 µM. Besides, the IC50 with NF-κB [1] (concentration that halved NF-κB activity, HeLa reporter cells, TPA 25 ng/ml, 8 h treatment) was determined as 10 µM. In the data set with HeLa cells [6], the CC50 came to 76 µM.
As for `CCCCC[C@H](O)/C=C/[C@H]1C=CC(=O)[C@@H]1CCCCCCC(=O)O` [Prostaglandin A1], in data set [7], the “effect on blood pressure” value is given as “dose-dependant falls in blood pressure”.
On the same count and under the same terms, as for `CCCCC[C@H](O)/C=C/[C@H]1[C@H](O)CC(=O)[C@@H]1CCCCCCC(=O)O` [Prostaglandin E1], the entry is “dose-dependant falls in blood pressure”.
Consider `CCCCCCCCCCCCCC(=O)O[C@@H]1[C@@H](C)[C@@]2(O)[C@@H](C=C(CO)C[C@]3(O)C(=O)C(C)=C[C@@H]23)[C@H]2C(C)(C)[C@]12OC(C)=O` [TPA], for which the luciferase activity in the data set on NF-κB [8] was 7181±444.
Turning to `O=C1C=CCC1` [cyclopent-2-en-1-one], in the data set on HSF1, the “concentration able to activate HSF1 and trigger synthesis of HSP70” value was 125 to 500 µM. Further, the “block of NF-κB activation by chemical or physiological inducers” value with NF-κB [9] is given as “able to block NF-κB activation”.
In turn, TNFα had a luciferase activity in the data set on NF-κB [8] of 6111±1231.
Consider “[(1R,2R)-2-(Naphthalen-2-ylsulfanyl)-4-oxocyclopentyl]-carbamic acid methyl ester; compound with benzene [CTM-238]”, for which the EC (2-fold HSF activity) in the data set with HSF came out at 26 µM. The compound further had an IC50 in the data set on NF-κB [1] of 17 µM. Besides, in the data set with HeLa cells [6], the CC50 turned out to be 113 µM.
The corresponding values for “[(1R,2S)-2-(Naphthalen-2-ylsulfanyl)-4-oxocyclopentyl]-carbamic acid methyl ester; compound with benzene [CTM-237]” are 28 µM, 9 µM and 183 µM.
